Measured values published in US9399675B2, “Methods and compositions for diagnosing Alzheimer's disease and age-related macular degeneration” (The Board of Regents of the University of Oklahoma, priority 2007, dated 2016).

Legend:
[1] = test system: HUVECs; assay: Flow cytometry of cell associated CAP37 in HUVECs; assay type: cell-based, human; settings: 10 ng/ml TNFα, permeabilized HUVECs
Experimental: FIG. 6: Flow cytometric analysis of cell associated CAP37 in HUVECs. HUVECs were incubated 18 h in the absence (unt) or presence of 10 ng/ml TNFα (TNFα), permeabilized and labeled with antisera to human CAP37 or normal serum control. Cells were permeabilized to determine intracellular levels of CAP37. A representative histogram from two independent experiments. The shift due to FITC-staining indicates increased expression of CAP37 in TNFα stimulated cells. Also indicated is a low level of constitutive CAP37 expression (unt).
HUVECs that were serum starved for 6 h were incubated in the absence or presence of 10 ng/ml TNFα for 10 h and 18 h. Permeabilized and non-permeabilized cells were fixed and stained essentially as described by Gräbner (18). The cells were first blocked with 4% normal donkey serum (JACKSON), then incubated at 4° C. with rabbit anti-human CAP37 antisera (1:300), and followed by biotin-sp-donkey F(ab′)2 anti-rabbit IgG, (JACKSON, 1:200) at 4° C. For detection the cells were incubated with fluorescein (DTAF)-conjugated streptavidin (JACKSON) at 2 μg/ml at 4° C. Cells were analyzed by flow cytometry (FACSCALIBUR, BECTON DICKINSON, San Jose, Calif.). Unstained cells and cells stained with normal rabbit serum were included as controls.

[2] = test system: HUVECs; assay: ELISA of released CAP37 in supernatants of HUVEC cultures; assay type: cell-based, human; settings: supernatants of treated HUVEC cultures
Source text: Flow cytometry confirmed the studies described in FIG. 5. TNFα treated cells that were permeabilized indicated up to a 5-fold increase of CAP37 expression over untreated cells (FIG. 6). […] To determine whether CAP37 is released from treated endothelial cells, ELISA was used to analyze supernatants from TNFα treated HUVEC cultures. Levels of released CAP37 from treated HUVECs were two-fold over untreated cells (data not shown). It was clear that the amount and proportion of CAP37 released from HUVECs was in general much less than the amount and proportion of CAP37 released from PMN (6). Almost 90% of total CAP37 is released from PMN following phagocytosis (6).

[3] = test system: Human neuronal cells (ATCC, HCN-1A); assay: Dot blot of released CAP37 in supernatants of human neuronal cells; assay type: cell-based; settings: 75 μg/ml, 12 hrs, HCN-1A neurons
Experimental: FIG. 10: Dot blot analysis of supernatants from human neuronal cells in vitro with anti-CAP37 antiserum. Top row (from left to right) consists of CAP37 standards, at 20, 10, 5 and 2.5 μg/ml. 2nd row consists of doubling dilutions of supes from β-amyloid treated neuronal cultures. Row 3 consists of doubling dilutions of supes from untreated neuronal cultures. Row 4-no antigen/control.
The expression of CAP37 in neurons was further corroborated using in vitro culture. Human neuronal cells (ATCC, HCN-1A) were cultured according to specifications, transferred to serum-free medium for 6 hr and treated with β-amyloid fragment 1-42 (75 μg/ml), control peptide 40-1 (75 μg/ml), and media for 12 hrs. Supernatants were analyzed by dot blot for presence of released CAP37 (FIG. 10) and cells stained with anti-CAP37 antiserum (FIG. 11A) and normal mouse serum (FIG. 11B) to determine cell-associated CAP37.

Substance	increase of CAP37 expression over untreated cells [1] [fold]	levels of released CAP37 over untreated cells [2]	concentration of released (secreted) CAP37 in supernatants [3]
TNFα	≤ 5	two-fold	–
β-amyloid fragment 1-42: toxic 42-amino acid beta-amyloid peptide used to induce CAP37 in human neurons	–	–	approximately 2.5 μg/ml
